One compound from paper PMC10895668, “Lead Optimization of the 5-Phenylpyrazolopyrimidinone NPD-2975 toward Compounds with Improved Antitrypanosomal Efficacy” (Journal of Medicinal Chemistry, 2024) can be followed below.

Where two headings read alike, the source gives them in different places.

The test system of data set [1] is peritoneal mouse macrophages (PMM). The experiment in a line: Cytotoxicity on peritoneal mouse macrophages. Type of data set: cell-based. The conditions noted are these: Macrophage, n ≥ 2.
In a further data set the test system is T. b. rhodesiense. The experiment in a line: Trypanosoma susceptibility assay (resazurin viability). The format is cell-based. The conditions noted are these: Trypanosoma brucei, mean ± SD, n ≥ 2, read-out: pIC50 T. b. rhodesiense (converted). As for the experimental part:
The antiparasitic assays were carried out exactly as described in Blaazer et al.([39]) Metabolic stability, pharmacokinetics, acute mouse infection model results were collected as described previously.[21] All animal experiments were conducted in compliance with institutional guidelines and following approval by the Ethical Committee of the University of Antwerp, Belgium [UA-ECD 2014–96]. Female Swiss mice (15–20 g), were purchased from Janvier (Le Genest Saint Isle, France). […] Animals were treated PO b.i.d. for 5 days at 25 and 50 mg/kg 31c. For the SL-RNA qPCR experiments blood was collected sublingually and subjected to erythrocyte lysis before extracting RNA with the QIAamp RNA Blood Mini kit (Qiagen). […]
Parasites were counted in a KOVA counting chamber and diluted to 1.5 × 10^4 parasites/well of a 96-well plate (200 μL total volume), upon which the prediluted test compounds were added. […] After 3 days of incubation, parasite growth was assessed fluorimetrically after addition of 50 μL of resazurin per well. After 6 h (T. b. rhodesiense) or 24 h (T. b. brucei) at 37 °C, fluorescence is measured (λex 550 nm, λem 590 nm). Parasite viability was assessed using the resazurin viability assay, and drug activity was calculated as percentage viability reduction compared to nontreated controls.

For data set [2] the following is noted: mouse, microsomes.
For data set [3] the following is noted: human, microsomes, 1 h.
In another data set the test system is T. b. brucei. The conditions noted are these: for survival: n = 3. The procedure:
(§1) The antiparasitic assays were carried out exactly as described in Blaazer et al.([39]) Metabolic stability, pharmacokinetics, acute mouse infection model results were collected as described previously.[21] All animal experiments were conducted in compliance with institutional guidelines and following approval by the Ethical Committee of the University of Antwerp, Belgium [UA-ECD 2014–96]. Female Swiss mice (15–20 g), were purchased from Janvier (Le Genest Saint Isle, France). […] Animals were treated PO b.i.d. for 5 days at 25 and 50 mg/kg 31c. For the SL-RNA qPCR experiments blood was collected sublingually and subjected to erythrocyte lysis before extracting RNA with the QIAamp RNA Blood Mini kit (Qiagen). […] Small pieces of fat, brain, and spleen tissue were excised and immediately transferred to RNA later (Qiagen) and incubated overnight at 4 °C. RNA extraction was performed as instructed in the RNeasy Mini Plus Kit manual (Qiagen). The one-step SensiFAST SYBR Hi-Rox PCR kit (Bioline USA Inc., via Gentaur Belgium BVBA, Kampenhout, Belgium) was used for the PCR with the following forward and reverse primers, respectively 5′-[…]-3′ and 5′-[…]-3′. An initial activation step of 10 min at 45 °C and 10 min at 95 °C was used, followed by the amplification step for 40 cycles (15 s at 95 °C, 15 s 50 °C and 15 s at 60 °C). At last, the melting curves were generated with an increment of 0.3 °C (15 s at 95 °C 1 min at 45 °C and 15 s at 95 °C). The PCR was run on the Step One Plus real-time PCR system (Applied Biosystems, California, USA). An additional qPCR was performed with the mouse housekeeping gene Eef2 to confirm successful RNA extraction.
Mice were allocated to groups of three and were infected by IP injection of 10^4T. brucei Squib 427 trypomastigotes. […] Suramin was included as a reference for T. brucei and injected IP s.i.d. for 5 days at 10 mg/kg. A PEG400 vehicle control group was also included. […] The first treatment was given 30 min prior to the artificial infection. Drug efficacy was evaluated by microscopic determination of the parasitemia in a blood drop collected from the tail vein at several time points until 63 days postinfection (dpi). […] An SL-RNA qPCR assay was performed in all surviving animals to confirm parasitological cure. For the SL-RNA qPCR, peripheral blood was subjected to erythrocyte lysis before extracting RNA with the QIAamp RNA Blood Mini kit (Qiagen). […] Small pieces of fat, brain, and spleen tissues were excised and immediately transferred to RNA later (Qiagen) and incubated overnight at 4 °C. RNA extraction was performed as instructed in the RNeasy Mini Plus Kit manual (Qiagen). […]

Another data set has as its system Leishmania infantum. Kind of data set: Antiparasitic assay, L. infantum. Type of data set: cell-based. To be noted: mean ± SD, n ≥ 2, read-out: pIC50 L. infantum (converted). As for the experimental part: (§2) First, they were tested in vitro against the protozoan species Trypanosoma cruzi and Leishmania infantum and the clinically relevant T. b. rhodesiense.
as §1, with “An initial activation step of 10 min at 45 °C and 10 min at 95 °C was used, followed by the amplification step for 40 cycles (15 s at 95 °C, 15 s 50 °C and 15 s at 60 °C). At last, the melting curves were generated with an increment of 0.3 °C (15 s at 95 °C 1 min at 45 °C and 15 s at 95 °C). The PCR was run on the Step One Plus real-time PCR system (Applied Biosystems, California, USA). An additional qPCR was performed with the mouse housekeeping gene Eef2 to confirm successful RNA extraction.” left out

In the next data set the test system is Trypanosoma cruzi. Kind of data set: Antiparasitic assay, T. cruzi. The format is cell-based. To be noted: mean ± SD, n ≥ 2, read-out: pIC50 T. cruzi (converted). As for the experimental part:
as §2
as §1, with “An initial activation step of 10 min at 45 °C and 10 min at 95 °C was used, followed by the amplification step for 40 cycles (15 s at 95 °C, 15 s 50 °C and 15 s at 60 °C). At last, the melting curves were generated with an increment of 0.3 °C (15 s at 95 °C 1 min at 45 °C and 15 s at 95 °C). The PCR was run on the Step One Plus real-time PCR system (Applied Biosystems, California, USA). An additional qPCR was performed with the mouse housekeeping gene Eef2 to confirm successful RNA extraction.” left out

The subject of the next data set is MRC-5 cells. Kind of data set: MRC-5SV2 cytotoxicity assay. Type of data set: cell-based. The conditions noted are these: Homo sapiens, MRC5, 72 h; cytotoxicity, 3 days incubation; mean ± SD, n ≥ 2; read-out: pIC50 MRC-5 (converted). As for the experimental part: The synthesized analogues were tested against T. b. brucei, and inhibition of MRC-5 (human lung fibroblasts MRC-5SV40) cell proliferation was included as cytotoxicity control. […] Analogue 17 with an amino group instead of the carbonyl group was prepared to improve solubility for further modification. […] In vitro experiments were carried out with the bloodstream form of the T. b. brucei Squib strain (suramin-sensitive). […] All cultures and assays were conducted at 37 °C under an atmosphere of 5% CO2. […] Cell growth is compared to untreated-control wells (100% cell growth) and medium-control wells (0% cell growth). […] After 4 h at 37 °C, fluorescence is measured (λex 550 nm, λem 590 nm). The results are expressed as % reduction in cell growth/viability compared to control wells and an IC50 and an IC90 (50 and 90% inhibitory concentrations) are determined.

With `CC(C)(C)c1n[nH]c2c(=O)[nH]c(-c3ccc(F)cc3)nc12` [31c, 3-(tert-Butyl)-5-(4-fluorophenyl)-1,6-dihydro-7H-pyrazolo[4,3-d]pyrimidin-7-one], the IC50 in data set [1] is > 63.1 µM; in the data set on T. b. rhodesiense it was 0.01 µM; in the data set with Leishmania infantum, > 63.1 µM; with Trypanosoma cruzi it was > 63.1 µM; in the data set with MRC-5 cells, > 63.1 µM. In addition, the “Phase-I metabolic stability (in words)” value in data set [2] was “improved metabolic stability compared with 2”. In addition, the parent compound remaining result in data set [2] (1 h) and in data set [3] was “at least 69%” in each case. For the same compound, the survival result in the data set with T. b. brucei (25 mg/kg b.i.d. PO for 5 days, one accidental death in this group) is “survived throughout the 60 days postinfection follow-up period without relapse”; in the data set on T. b. brucei (50 mg/kg b.i.d. PO for 5 days), “survived throughout the 60 days postinfection follow-up period without relapse”. For the same compound, the “trypanosome Spliced Leader (SL) RNA by qPCR” value in the data set with T. b. brucei (blood, spleen, fat and brain tissue of surviving animals) is on record as “difficulty to detect trypanosome Spliced Leader (SL) RNA”.
